Patent US7741479B2, “Urea inhibitors of MAP kinases” (Locus Pharmaceuticals, Inc., priority 2004, dated 2010)

target: T1, p38 (Homo sapiens, UniProt Q16539); assay: Protein Kinase Assay (33P incorporation from γ-[33P]ATP into GST-ATF-2 substrate); assay type: biochemical; details: compound at 3 μM; read-out: Protein Kinase (% Inhibition at 3 μM)
T1 construct: made in house
Experimental: Human non-activated p38 kinase (MW=43 kDa) was purified according to the protocol described herein. Chemicals were purchased from Calbiochem. Fluorescence characterizations were conducted using a Cary Eclipse (Varian Analytical Instruments, Walnut Creek, Calif.). Research-grade CM5 sensor chips and coupling reagents (N-ethyl-N′-dimethylaminopropylcarbodiimide (EDC) N-hydroxysuccinimide (NHS), and 1 M ethanolamine HCl, pH 8.5) were purchased from Biacore AB (Uppsala, Sweden). The biosensor analyses were conducted using a Biacore 3000 SPR instrument. The kinetic analyses were carried on a Molecular Devices spectrophotometer (Molecular Devices Corporation, CA, USA).
Protein Kinase Assay. The protein kinase activity of p38 was determined by measuring the incorporation of ^33P from γ-[^33P]ATP into the GST-ATF-2 substrate, amino acids 19-96 (Upstate, NY USA). […] Compounds were preincubated with 10 nM p38 for 20 min at 30° C.; the reactions were initiated by the addition of GST-ATF2 and ATP and incubated for 70 min at 30° C. before being stopped by the addition of 10 μL of 600 mM phosphoric acid. The phosphorylated substrate was captured on phosphocellulose 96-well plate (Millipore MAPHNOB 10), washed with 100 mM phosphoric acid, and counted in a BeckmenCoulter LS6500 liquid scintillation counter.

T1 sequence (Q16539 whole entry): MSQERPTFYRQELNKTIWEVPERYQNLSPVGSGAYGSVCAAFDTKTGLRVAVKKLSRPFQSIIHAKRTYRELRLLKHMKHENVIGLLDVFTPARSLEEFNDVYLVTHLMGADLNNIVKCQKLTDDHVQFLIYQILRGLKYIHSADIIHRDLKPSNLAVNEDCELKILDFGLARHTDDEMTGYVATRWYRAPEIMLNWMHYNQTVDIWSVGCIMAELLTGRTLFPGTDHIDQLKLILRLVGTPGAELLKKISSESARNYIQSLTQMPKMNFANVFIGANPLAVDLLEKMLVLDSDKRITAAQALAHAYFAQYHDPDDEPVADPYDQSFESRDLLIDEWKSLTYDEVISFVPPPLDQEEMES

Compound	inhibition at 3 µM
CC(C)(C)c1cc(NC(=O)Nc2cccc3ccccc23)c(C(=O)N2CCNS(=O)(=O)CC2)s1 [Example 51, 1-[5-tert-butyl-2-(1,1-dioxo-1λ^6-[1,2,5]thiadiazepane-5-carbonyl)thiophen-3-yl]-3-naphthalen-1-ylurea]	76 to 100%
CC(C)(C)c1cc(NC(=O)Nc2cccc3ccccc23)c(C(=O)N2CCNC(=O)C2)s1 [Example 52, 1-[5-tert-butyl-2-(3-oxopiperazine-1-carbonyl)thiophen-3-yl]-3-naphthalen-1-ylurea]	76 to 100%
CC(C)(C)c1cc(C(=O)N2CCNC(=O)CC2)c(NC(=O)Nc2cccc(Cl)c2Cl)s1 [Example 53, 1-[5-tert-butyl-3-(5-oxo-[1,4]diazepane-1-carbonyl)thiophen-2-yl]-3-(2,3-dichlorophenyl)urea]	76 to 100%
CC(C)(C)c1cc(C(=O)N2CCNC(=O)CC2)c(NC(=O)Nc2cccc(Cl)c2)s1 [Example 54, 1-[5-tert-butyl-3-(5-oxo-[1,4]diazepane-1-carbonyl)thiophen-2-yl]-3-(3-chlorophenyl)urea]	76 to 100%
CC(C)(C)c1cc(C(=O)N2CCNC(=O)CC2)c(NC(=O)Nc2ccc(C#N)c3ccccc23)s1 [Example 55, 1-[5-tert-butyl-3-(5-oxo-[1,4]diazepane-1-carbonyl)thiophen-2-yl]-3-(4-cyanonaphthyl)urea]	76 to 100%
CC(C)(C)c1cc(C(=O)N2CCNS(=O)(=O)CC2)c(NC(=O)Nc2ccc(C#N)c3ccccc23)s1 [Example 56, 1-[5-tert-butyl-3-(1,1-dioxo-1λ^6-[1,2,5]thiadiazepane-5-carbonyl)thiophen-2-yl]-3-(4-cyanonaphthalen-1-yl)urea]	76 to 100%
CC(C)(C)c1cc(C(=O)N2CCNC(=O)C2)c(NC(=O)Nc2ccc(C#N)c3ccccc23)s1 [Example 57, 1-[5-tert-butyl-3-(3-oxopiperazine-1-carbonyl)thiophen-2-yl]-3-(4-cyano-naphthalen-1-yl)urea]	76 to 100%
CC(C)(C)c1cc(C(=O)N2CCS(=O)(=O)CC2)c(NC(=O)Nc2cccc(Cl)c2Cl)s1 [Example 58, 1-[5-tert-butyl-3-(1,1-dioxo-1λ^6-thiomorpholine-4-carbonyl)thiophen-2-yl]-3-(2,3-dichlorophenyl)urea]	76 to 100%
CC(C)(C)c1cc(C(=O)N2CCS(=O)(=O)CC2)c(NC(=O)Nc2cccc(Cl)c2)s1 [Example 59, 1-[5-tert-butyl-3-(1,1-dioxo-1λ^6-thiomorpholine-4-carbonyl)thiophen-2-yl]-3-(3-chlorophenyl)urea]	76 to 100%
CC(C)(C)c1cc(C(=O)N2CCS(=O)(=O)CC2)c(NC(=O)Nc2ccc3c(c2)OCO3)s1 [Example 60, 1-Benzo[1,3]dioxol-5-yl-3-[5-tert-butyl-3-(1,1-dioxo-1λ^6-thiomorpholine-4-carbonyl)thiophen-2-yl]urea]	76 to 100%
CC(C)(C)c1cc(C(=O)N2CCS(=O)(=O)CC2)c(NC(=O)Nc2ccc3c(c2)OC(F)(F)O3)s1 [Example 61, 1-[5-tert-butyl-3-(1,1-dioxo-1λ^6-thiomorpholine-4-carbonyl)thiophen-2-yl]-3-(2,2-difluorobenzo[1,3]dioxol-5-yl)urea]	76 to 100%
COc1ccc(NC(=O)Nc2sc(C(C)(C)C)cc2C(=O)N2CCS(=O)(=O)CC2)cc1Cl [Example 62, 1-[5-tert-butyl-3-(1,1-dioxo-1λ^6-thiomorpholine-4-carbonyl)thiophen-2-yl]-3-(3-chloro-4-methoxyphenyl)urea]	76 to 100%
CC(C)(C)c1cc(C(=O)N2CCS(=O)(=O)CC2)c(NC(=O)Nc2ccc(Cl)c(Cl)c2)s1 [Example 63, 1-[5-tert-butyl-3-(1,1-dioxo-1λ^6-thiomorpholine-4-carbonyl)thiophen-2-yl]-3-(3,4-dichlorophenyl)urea]	76 to 100%
CC(C)(C)c1cc(C(=O)N2CCS(=O)(=O)CC2)c(NC(=O)Nc2ccc(C#N)c(Cl)c2)s1 [Example 64, 1-[5-tert-butyl-3-(1,1-dioxo-1λ^6-thiomorpholine-4-carbonyl)thiophen-2-yl]-3-(3-chloro-4-cyanophenyl)urea]	51 to 75%
CC(C)(C)c1cc(C(=O)N2CCS(=O)(=O)CC2)c(NC(=O)Nc2ccc(C#N)c(C(F)(F)F)c2)s1 [Example 65, 1-[5-tert-butyl-3-(1,1-dioxo-1λ^6-thiomorpholine-4-carbonyl)thiophen-2-yl]-3-(4-cyano-3-trifluoromethylphenyl)urea]	26 to 50%
CC(C)(C)c1cc(C(=O)N2CCS(=O)(=O)CC2)c(NC(=O)NC(C)(C)c2ccccc2)s1 [Example 66, 1-[5-tert-butyl-3-(1,1-dioxo-1λ^6-thiomorpholine-4-carbonyl)thiophen-2-yl]-3-(1-methyl-1-phenylethyl)urea]	0 to 25%

Compound	inhibition at 3 µM
Cc1cccc(NC(=O)Nc2sc(C(C)(C)C)cc2C(=O)N2CCS(=O)(=O)CC2)c1 [Example 67, 1-[5-tert-butyl-3-(1,1-dioxo-1λ^6-thiomorpholine-4-carbonyl)thiophen-2-yl]-3-(3-tolyl)urea]	76 to 100%
CC(C)(C)c1cc(C(=O)N2CCS(=O)(=O)CC2)c(NC(=O)Nc2cc(Cl)cc(Cl)c2)s1 [Example 68, 1-[5-tert-butyl-3-(1,1-dioxo-1λ^6-thiomorpholine-4-carbonyl)thiophen-2-yl]-3-(3,5-dichlorophenyl)urea]	76 to 100%
Cn1ccc(NC(=O)Nc2sc(C(C)(C)C)cc2C(=O)N2CCS(=O)(=O)CC2)n1 [Example 69, 1-[5-tert-butyl-3-(1,1-dioxo-1λ^6-thiomorpholine-4-carbonyl)thiophen-2-yl]-3-(1-methyl-1H-pyrazol-3-yl)urea]	0 to 25%
Cc1cc(NC(=O)Nc2sc(C(C)(C)C)cc2C(=O)N2CCS(=O)(=O)CC2)cc(C)n1 [Example 70, 1-[5-tert-butyl-3-(1,1-dioxo-1λ^6-thiomorpholine-4-carbonyl)thiophen-2-yl]-3-(2,6-dimethylpyridin-4-yl)urea]	26 to 50%
CC(C)(C)c1cc(C(=O)N2CCS(=O)(=O)CC2)c(NC(=O)Nc2ccc3ocnc3c2)s1 [Example 71, 1-Benzoxazol-5-yl-3-[5-tert-butyl-3-(1,1-dioxo-1λ^6-thiomorpholine-4-carbonyl)thiophen-2-yl]urea]	76 to 100%
CC(C)(C)c1cc(C(=O)N2CCS(=O)(=O)CC2)c(NC(=O)Nc2ccc3ncoc3c2)s1 [Example 72, 1-Benzoxazol-6-yl-3-[5-tert-butyl-3-(1,1-dioxo-1λ^6-thiomorpholine-4-carbonyl)thiophen-2-yl]urea]	76 to 100%
CC(C)(C)c1cc(C(=O)N2CCNC(=O)CC2)c(NC(=O)Nc2ccc3c(c2)OCO3)s1 [Example 73, 1-Benzo[1,3]dioxol-5-yl-3-[5-tert-butyl-3-(5-oxo-[1,4]diazepane-1-carbonyl)-thiophen-2-yl]urea]	76 to 100%
CC(C)(C)c1cc(C(=O)N2CCNC(=O)CC2)c(NC(=O)Nc2ccc3c(c2)OC(F)(F)O3)s1 [Example 74, 1-[5-tert-butyl-3-(5-oxo-[1,4]diazepane-1-carbonyl)-thiophen-2-yl]-3-(2,2-difluoro-benzo[1,3]dioxol-5-yl)urea]	76 to 100%
CC(C)(C)c1cc(C(=O)Nc2cccnc2)c(NC(=O)Nc2ccc(Cl)cc2)s1 [Example 75, 1-(3-(Pyridin-3-ylcarbamoyl)-5-tert-butylthiophen-2-yl)-3-(4-chlorophenyl)urea]	76 to 100%
CC(C)(C)c1cc(C(=O)N2CCS(=O)(=O)CC2)c(NC(=O)Nc2ccc(C#N)cc2Cl)s1 [Example 76, 1-[5-tert-butyl-3-(1,1-dioxo-1λ^6-thiomorpholine-4-carbonyl)thiophen-2-yl]-3-(2-chloro-4-cyanophenyl)urea]	76 to 100%
CC(C)(C)c1cc(C(=O)N2CCS(=O)(=O)CC2)c(NC(=O)NC2(c3ccccc3)CC2)s1 [Example 77, 1-[5-tert-butyl-3-(1,1-dioxo-1λ^6-thiomorpholine-4-carbonyl)thiophen-2-yl]-3-(1-phenylcyclopropyl)urea]	26 to 50%
CC1C(=O)NCCN1C(=O)c1cc(C(C)(C)C)sc1NC(=O)Nc1ccc(Cl)cc1 (stereo not shown) [Example 78, 1-[5-tert-butyl-3-(2-methyl-3-oxopiperazine-1-carbonyl)thiophen-2-yl]-3-(4-chlorophenyl)urea]	76 to 100%
CC(C)(C)c1nc(C(=O)N2CCNS(=O)(=O)CC2)c(NC(=O)Nc2cccc3ccccc23)s1 [Example 80, 1-[2-tert-butyl-4-(1,1-dioxo-1λ^6-[1,2,5]thiadiazepane-5-carbonyl)thiazol-5-yl]-3-naphthalen-1-ylurea]	76 to 100%
CN(CCS(C)(=O)=O)C(=O)c1cc(C(C)(C)C)sc1NC(=O)Nc1cccc2ccccc12 [Example 82, 1-(3-(N-methyl-N-(2-(methylsulfonyl)ethyl)carbamoyl)-5-tert-butylthiophen-2-yl)-3-(naphthalen-1-yl)urea]	76 to 100%
CC(C)(C)c1nc(C(=O)N2CCNC(=O)C2)c(NC(=O)Nc2cccc3ccccc23)s1 [Example 83, 1-[2-tert-butyl-4-(3-oxopiperazine-1-carbonyl)thiazol-5-yl]-3-naphthalen-1-ylurea]	76 to 100%
